Several values for one entry are separate records, joined by “and”; a condition that tells them apart may be missing. Identical values can stand only once. Inconclusive results and toxic doses are left out. Cut-off read from the data, not from the text of the source: active = T/C of 150% or more; inactive = T/C below 125%.
Tested on: L1210 leukemia ip in BDF1 mice, survival T/C
Test: NCI In Vivo Anticancer Drug Screen. Data for tumor model L1210 Leukemia (intraperitoneal) in B6D2F1 (BDF1) mice
Details: endpoint: mean survival time, higher = longer survival
Procedure, shortened: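 Transplanted-tumor mice were given test agent; controls received vehicle only. Survival readings from the two groups were divided (treated over control).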

[1] = dose: 100.0 mg/kg/injection, schedule: Q01DX009 (ip), vehicle: Klucel (hydroxypropylcellulose) (HPC)
[2] = dose: 200.0 mg/kg/injection, schedule: Q01DX009 (ip), vehicle: Klucel (hydroxypropylcellulose) (HPC)
[3] = dose: 400.0 mg/kg/injection, schedule: Q01DX009 (ip), vehicle: Klucel (hydroxypropylcellulose) (HPC)
[4] = dose: 100.0 mg/kg/injection, schedule: Q04DX003 (ip), vehicle: saline with Tween-80
[5] = dose: 200.0 mg/kg/injection, schedule: Q04DX003 (ip), vehicle: saline with Tween-80
[6] = dose: 400.0 mg/kg/injection, schedule: Q04DX003 (ip), vehicle: saline with Tween-80
[7] = dose: 100.0 mg/kg/injection, schedule: Q04DX003 (ip), vehicle: Klucel (hydroxypropylcellulose) (HPC)
[8] = dose: 200.0 mg/kg/injection, schedule: Q04DX003 (ip), vehicle: Klucel (hydroxypropylcellulose) (HPC)
[9] = dose: 400.0 mg/kg/injection, schedule: Q04DX003 (ip), vehicle: Klucel (hydroxypropylcellulose) (HPC)
[10] = dose: 50.0 mg/kg/injection, schedule: Q04DX003 (ip), vehicle: Klucel (hydroxypropylcellulose) (HPC)
[11] = dose: 10.0 mg/kg/injection, schedule: Q01DX001 (ip), vehicle: saline
[12] = dose: 100.0 mg/kg/injection, schedule: Q01DX009 (ip), vehicle: saline
[13] = dose: 200.0 mg/kg/injection, schedule: Q01DX009 (ip), vehicle: saline

Measured: T/C

ClC1=C(Cl)C2(Cl)C(COc3ccc(Cl)cc3)CC1(Cl)C2(Cl)Cl (centres undefined)
inactive: dose: 50.0 mg/kg/injection, schedule: Q01DX009 (ip), vehicle: other 91 % of control | [1] 94 % of control | dose: 100.0 mg/kg/injection, schedule: Q04DX003 (ip), vehicle: other 109 % of control | [2] 96 % of control | dose: 200.0 mg/kg/injection, schedule: Q04DX003 (ip), vehicle: other 104 % of control | [3] 96 % of control

CCC(CC)(CC)OC(=O)NS(=O)(=O)c1ccc(Cl)cc1
inactive: dose: 100.0 mg/kg/injection, schedule: Q01DX009 (ip), vehicle: acetone 107 % of control | [4] 120 % of control | [5] 104 % of control | [6] 109 % of control

CC1(C)C2CCC1(C)C(NC(=O)N(CCCl)N=O)C2 (centres undefined)
inactive: dose: 4.0 mg/kg/injection, schedule: Q01DX001 (ip), vehicle: carboxymethylcellulose (CMC) 98 % of control | dose: 9.0 mg/kg/injection, schedule: Q01DX001 (ip), vehicle: carboxymethylcellulose (CMC) 96 % of control | dose: 18.0 mg/kg/injection, schedule: Q01DX001 (ip), vehicle: carboxymethylcellulose (CMC) 102 % of control | dose: 37.0 mg/kg/injection, schedule: Q01DX001 (ip), vehicle: carboxymethylcellulose (CMC) 112 % of control | dose: 75.0 mg/kg/injection, schedule: Q01DX001 (ip), vehicle: carboxymethylcellulose (CMC) 104 % of control | dose: 150.0 mg/kg/injection, schedule: Q01DX001 (ip), vehicle: carboxymethylcellulose (CMC) 106 % of control | dose: 200.0 mg/kg/injection, schedule: Q01DX001 (ip), vehicle: carboxymethylcellulose (CMC) 115 % of control | dose: 500.0 mg/kg/injection, schedule: Q01DX001 (ip), vehicle: carboxymethylcellulose (CMC) 115 % of control | dose: 1000.0 mg/kg/injection, schedule: Q01DX001 (ip), vehicle: carboxymethylcellulose (CMC) 121 % of control

CN(CCCl)C(=O)Nc1ccc(Cl)cc1
inactive: [7] 94 % of control | [8] 94 % of control | [9] 90 % of control

CC(Cc1ccccc1)NC(C#N)c1ccccc1 (centres undefined)
inactive: dose: 12.5 mg/kg/injection, schedule: Q01DX009 (ip), vehicle: Klucel (hydroxypropylcellulose) (HPC) 107 % of control | dose: 25.0 mg/kg/injection, schedule: Q01DX009 (ip), vehicle: Klucel (hydroxypropylcellulose) (HPC) 88 % of control | dose: 25.0 mg/kg/injection, schedule: Q04DX003 (ip), vehicle: Klucel (hydroxypropylcellulose) (HPC) 98 % of control | dose: 25.0 mg/kg/injection, schedule: Q04DX003 (ip), vehicle: saline with Tween-80 97 % of control | dose: 50.0 mg/kg/injection, schedule: Q01DX009 (ip), vehicle: Klucel (hydroxypropylcellulose) (HPC) 91 % of control | [10] 109 % of control | dose: 50.0 mg/kg/injection, schedule: Q04DX003 (ip), vehicle: saline with Tween-80 100 % of control | [1] 96 % of control | [7] 109 % of control | [4] 92 % of control | [8] 101 % of control

CCOC(=O)/C=C(\C)C(C)=O
inactive: dose: 100.0 mg/kg/injection, schedule: Q01DX009 (ip), vehicle: saline with Tween-80 92 % of control | [4] 98 % of control | dose: 200.0 mg/kg/injection, schedule: Q01DX009 (ip), vehicle: saline with Tween-80 96 % of control | [5] 103 % of control | dose: 400.0 mg/kg/injection, schedule: Q01DX009 (ip), vehicle: saline with Tween-80 92 % of control | [6] 104 % of control

CCOC(=O)c1cnc[nH]c1=O
inactive: [7] 100 % of control | [8] 100 % of control | [9] 87 % of control

CCCCCCCCCCCCCCCC[n+]1ccc(C#N)cc1
inactive: dose: 1.25 mg/kg/injection, schedule: Q01DX009 (ip), vehicle: saline 89 % of control | dose: 2.5 mg/kg/injection, schedule: Q01DX009 (ip), vehicle: saline 97 % of control | dose: 2.5 mg/kg/injection, schedule: Q04DX003 (ip), vehicle: saline 97 % of control | dose: 5.0 mg/kg/injection, schedule: Q01DX009 (ip), vehicle: saline 94 % of control | dose: 5.0 mg/kg/injection, schedule: Q04DX003 (ip), vehicle: saline 101 % of control | [11] 90 % of control | dose: 10.0 mg/kg/injection, schedule: Q04DX003 (ip), vehicle: saline 94 % of control

CCOC(=O)CNC(c1ccccc1)(c1ccccc1)c1ccccc1
inactive: [1] 106 % of control | [7] 91 % of control | [2] 90 % of control | [8] 91 % of control | [3] 90 % of control | [9] 98 % of control

O=S1(=O)C2CCCC1CCC2
inactive: [11] 98 % of control and 109 % of control | dose: 40.0 mg/kg/injection, schedule: Q01DX001 (ip), vehicle: saline 102 % of control | dose: 75.0 mg/kg/injection, schedule: Q01DX001 (ip), vehicle: saline 109 % of control | dose: 150.0 mg/kg/injection, schedule: Q01DX001 (ip), vehicle: saline 100 % of control | dose: 300.0 mg/kg/injection, schedule: Q01DX001 (ip), vehicle: saline 104 % of control

CN(C)N=Nc1ccc(C(=O)N/N=C/c2cccc([N+](=O)[O-])c2)cc1
inactive: [10] 92 % of control | [7] 106 % of control | [8] 92 % of control

COC(=O)C1OC(n2cnc3c(N)ncnc32)C(O)C1O (centres undefined)
inactive: dose: 100.0 mg/kg/injection, schedule: Q01DX005 (ip), vehicle: saline 101 % of control | dose: 200.0 mg/kg/injection, schedule: Q01DX005 (ip), vehicle: saline 101 % of control

COc1ccc(C2CCc3cc(OC)c(OC)cc3C2NC=O)cc1OC (centres undefined)
inactive: dose: 40.0 mg/kg/injection, schedule: Q01DX009 (ip), vehicle: saline with Tween-80 90 % of control | dose: 80.0 mg/kg/injection, schedule: Q01DX009 (ip), vehicle: saline with Tween-80 102 % of control | dose: 120.0 mg/kg/injection, schedule: Q01DX009 (ip), vehicle: saline with Tween-80 93 % of control | dose: 240.0 mg/kg/injection, schedule: Q01DX009 (ip), vehicle: saline with Tween-80 90 % of control | dose: 360.0 mg/kg/injection, schedule: Q01DX009 (ip), vehicle: saline with Tween-80 87 % of control

CC(C)(CCCl)N(Cc1ccccc1)Cc1ccccc1
inactive: [12] 93 % of control | dose: 100.0 mg/kg/injection, schedule: Q04DX003 (ip), vehicle: saline 99 % of control | [13] 90 % of control | dose: 200.0 mg/kg/injection, schedule: Q04DX003 (ip), vehicle: saline 95 % of control | dose: 400.0 mg/kg/injection, schedule: Q04DX003 (ip), vehicle: saline 89 % of control

CC(C)=CCO
inactive: [12] 96 % of control | [13] 93 % of control | dose: 400.0 mg/kg/injection, schedule: Q01DX009 (ip), vehicle: saline 88 % of control

Cn1c(=O)c2ccc[n+]([O-])c2n(C)c1=O
inactive: [1] 101 % of control | [7] 103 % of control | [2] 108 % of control | [8] 96 % of control | [3] 105 % of control | [9] 107 % of control
